# Data from patent US20260363244A1, “HERBICIDAL COMPOSITIONS COMPRISING URACILS” (BASF SE, priority 2022, published 2026).
# Where two headings read alike, the source gives them in different places.
# Tests used:
# Assay type in all cases: in vivo
# Digitaria sanguinales = experiment: greenhouse post-emergence herbicidal activity, DIGSA
# Method: (§1) The following examples serve to illustrate the invention.
# (§2) The culture containers used were plastic pots containing loamy sand with approximately 3.0% of humus as substrate. The seeds of the test plants were sown separately for each species.
# (§3) For the post-emergence treatment, the test plants were grown to a plant height of from 3 to 15 cm, depending on the plant habit, and only then treated with the active compounds which had been suspended or emulsified in water. To this end, the test plants were either sown directly, and grown in the same containers, or they were first grown separately as seedlings and transplanted into the test containers a few days prior to treatment.
# (§4) Depending on the species, the plants were kept at 10-25 °C and 20-35 °C, respectively. The test period extended over 2 to 4 weeks. During this time, the plants were tended and their response to the individual treatments was evaluated.
# (§5) Evaluation was carried out using a scale from 0 to 100. 100 means no emergence of the plants, or complete destruction of at least the above-ground parts, and 0 means no damage or normal course of growth. A good herbicidal activity is given at values of at least 70, and very good herbicidal activity is given at values of at least 85.
# (§6) The respective stated components A and B, and if appropriate, C were formulated as a 5% by weight strength emulsion concentrate and, with addition of the amount of solvent system, introduced into the spray liquor used for applying the active compound. In the examples, the solvent used was water.
# (§7) In the examples below, using the method of S. R. Colby (1967) “Calculating synergistic and antagonistic responses of herbicide combinations”, Weeds 15, p. 22ff., the value E, which is expected if the activity of the individual active compounds is only additive, was calculated.
# (§8) E=X+Y−(X·Y/100) • where • X=percent activity using active compound A at an application rate a; • Y=percent activity using active compound B at an application rate b; • E=expected activity (in %) by A+B at application rates a+b.
# (§9) The plants used in the greenhouse experiments were of the following species
# (§10) In this context, a.i. means active ingredient, based on 100% active ingredient.
# (§11) As indicated the application was post emergent (POST) at the respective growth stage (GS) of the weed.
# (§12) Assessment was at the indicated days after treatment (DAT).
# Amaranthus tamariscinus = experiment: greenhouse post-emergence herbicidal activity, AMATA; details: read-out: % activity (solo application); for activity at 0.4 g/ha: 0.4 gai/ha
# Method: as §1, §2, §3, §4, §5, §6, §7, §8, §9, §10, §11, §12
# Setaria viridis = experiment: greenhouse post-emergence herbicidal activity, SETVI; details: for activity at 0.4 g/ha / activity at 0.8 g/ha / activity at […]: Setaria viridis, post-emergence, read-out: % activity (solo application); for activity at 0.4 g/ha: 0.4 gai/ha; for activity at 0.8 g/ha: 0.8 gai/ha; for % activity: solo application, SETVI
# Method: as §1, §2, §3, §4, §5, §6, §7, §8, §9, §10, §11, §12
# Lolium multiflorum = experiment: greenhouse post-emergence herbicidal activity, LOLMU; details: for activity at […]: Lolium multiflorum, post-emergence, 3.2 gai/ha, read-out: % activity (solo application)
# Method: as §1, §2, §3, §4, §5, §6, §7, §8, §9, §10, §11, §12
# Avena fatua = experiment: greenhouse post-emergence herbicidal activity, AVEFA; details: read-out: % activity (solo application); for activity at 0.4 g/ha: 0.4 gai/ha
# Method: as §1, §2, §3, §4, §5, §6, §7, §8, §9, §10, §11, §12
# Kochia scoparia = experiment: greenhouse post-emergence herbicidal activity, KCHSC; details: for activity at 0.4 g/ha: 0.4 gai/ha; for % activity: solo application, KCHSC
# Method: as §1, §2, §3, §4, §5, §6, §7, §8, §9, §10, §11, §12
# Eleusine indica = experiment: greenhouse post-emergence herbicidal activity, ELEIN; details: read-out: % activity (solo application); for activity at 0.4 g/ha: 0.4 gai/ha
# Method: as §1, §2, §3, §4, §5, §6, §7, §8, §9, §10, §11, §12
# Commenline benghalensis = experiment: greenhouse post-emergence herbicidal activity, COMBE; details: read-out: % activity (solo application); for activity at […]: 168 h, GS 11-33, 7 DAT
# Method: as §1, §2, §3, §4, §5, §6, §7, §8, §9, §10, §11, §12
# Echinocloa crus-galli = experiment: greenhouse post-emergence herbicidal activity, ECHCG; details: for activity at 0.4 g/ha: Echinochloa crus-galli, post-emergence, 0.4 gai/ha, read-out: % activity (solo application); for % activity: solo application, ECHCG
# Method: as §1, §2, §3, §4, §5, §6, §7, §8, §9, §10, §11, §12
# Sorghum halepense = experiment: greenhouse post-emergence herbicidal activity, SORHA; details: GS 11-33, 20 DAT
# Method: as §1, §2, §3, §4, §5, §6, §7, §8, §9, §10, §11, §12
# Brachiaria decumbens = experiment: greenhouse post-emergence herbicidal activity, BRADC; details: for activity at […]: Urochloa decumbens, post-emergence, read-out: % activity (solo application)
# Method: as §1, §2, §3, §4, §5, §6, §7, §8, §9, §10, §11, §12
# Abutilon theophrasti = experiment: greenhouse post-emergence herbicidal activity, ABUTH; details: read-out: % activity (solo application); for activity at 0.4 g/ha: 0.4 gai/ha; for activity at 0.8 g/ha: 0.8 gai/ha
# Method: as §1, §2, §3, §4, §5, §6, §7, §8, §9, §10, §11, §12
# Setaria faberi = experiment: greenhouse post-emergence herbicidal activity, SETFA; details: Setaria faberi, post-emergence, 480 h, GS 11-33, 20 DAT, read-out: % activity (solo application)
# Method: as §1, §2, §3, §4, §5, §6, §7, §8, §9, §10, §11, §12
# [1] = 192 h, GS 11-33, 8 DAT, 3.2 gai/ha
# [2] = 480 h, GS 11-33, 20 DAT, 1.6 gai/ha
# [3] = 480 h, GS 11-33, 20 DAT, 3.2 gai/ha
# [4] = 168 h, GS 11-33, 7 DAT, 3.2 gai/ha
# [5] = GS 11-33, 20 DAT, use rate 0.4 gai/ha
smiles,measurement,setting,value
"C=C[C@]1(C(=O)N[C@H]2CO[C@@H](C(=O)OC)C2)CC(c2cc(F)cc(F)c2)=NO1 (mixture of isomers) [ISOX-8, methyl (2RS,4RS)-4-({[(5S)-3-(3,5-difluorophenyl)-5-vinyl-4,5-dihydroisoxazol-5-yl]carbonyl}amino)tetrahydrofuran-2-carboxylate]",activity at 0.4 g/ha,"Digitaria sanguinales; Digitaria, post-emergence, 192 h, GS 11-33, 8 DAT, 0.4 gai/ha, read-out: % activity (solo application)",10%
same,activity at […],"Digitaria sanguinales; Digitaria, post-emergence, 480 h, GS 11-33, 20 DAT, 3.2 gai/ha, read-out: % activity (solo application)",60%
same,% activity,"Digitaria sanguinales; solo application, DIGSA, GS 11-33, 20 DAT, use rate 0.8 gai/ha",10%
same,activity at 0.4 g/ha,"Amaranthus tamariscinus; 168 h, GS 11-33, 7 DAT",40%
same,activity at 0.4 g/ha,"Amaranthus tamariscinus; 480 h, GS 11-33, 20 DAT",35%
same,activity at 0.8 g/ha,"Amaranthus tamariscinus; 480 h, GS 11-33, 20 DAT, 0.8 gai/ha",75%
same,activity at 0.4 g/ha,"Setaria viridis; 192 h, GS 11-33, 8 DAT",10%
same,activity at 0.8 g/ha,"Setaria viridis; 192 h, GS 11-33, 8 DAT",25%
same,activity at […],Setaria viridis; [1],40%
same,activity at 0.4 g/ha,"Setaria viridis; 480 h, GS 11-33, 20 DAT",10%
same,activity at 0.8 g/ha,"Setaria viridis; 480 h, GS 11-33, 20 DAT",25%
same,activity at […],Setaria viridis; [2],50%
same,activity at […],Setaria viridis; [3],85%
same,% activity,"Setaria viridis; GS 11-33, 8 DAT, use rate 0.4 gai/ha",10%
same,% activity,"Setaria viridis; GS 11-33, 8 DAT, use rate 3.2 gai/ha",40%
same,activity at […],"Lolium multiflorum; 168 h, GS 11-33, 7 DAT",50%
same,activity at […],"Lolium multiflorum; 480 h, GS 11-33, 20 DAT",80%
same,% activity,"Lolium multiflorum; solo application, LOLMU, GS 11-33, 7 DAT, use rate 3.2 gai/ha",50%
same,activity at 0.4 g/ha,"Avena fatua; 168 h, GS 11-33, 7 DAT",25%
same,activity at […],Avena fatua; [4],70%
same,activity at 0.4 g/ha,"Avena fatua; 480 h, GS 11-33, 20 DAT",60%
same,activity at […],Avena fatua; [2],85%
same,activity at […],Avena fatua; [3],90%
same,activity at 0.4 g/ha,"Kochia scoparia; Bassia scoparia, post-emergence, 168 h, GS 11-33, 7 DAT, read-out: % activity (solo application)",10%
same,activity at 0.8 g/ha,"Kochia scoparia; Bassia scoparia, post-emergence, 168 h, GS 11-33, 7 DAT, 0.8 gai/ha, isoxazolin, read-out: % activity (solo application)",25%
same,activity at […],"Kochia scoparia; Bassia scoparia, post-emergence, 168 h, GS 11-33, 7 DAT, 3.2 gai/ha, read-out: % activity (solo application)",55%
same,activity at 0.4 g/ha,"Kochia scoparia; Bassia scoparia, post-emergence, 480 h, GS 11-33, 20 DAT, read-out: % activity (solo application)",10%
same,activity at […],"Kochia scoparia; Bassia scoparia, post-emergence, 480 h, GS 11-33, 20 DAT, 1.6 gai/ha, read-out: % activity (solo application)",60%
same,activity at […],"Kochia scoparia; Bassia scoparia, post-emergence, 480 h, GS 11-33, 20 DAT, 3.2 gai/ha, read-out: % activity (solo application)",70%
same,% activity,"Kochia scoparia; GS 11-33, 7 DAT, use rate 3.2 gai/ha",55%
same,% activity,Kochia scoparia; [5],10%
same,activity at 0.4 g/ha,"Eleusine indica; 168 h, GS 11-33, 7 DAT",10%
same,activity at 0.4 g/ha,"Eleusine indica; 480 h, GS 11-33, 20 DAT",5%
same,activity at […],Eleusine indica; [3],70%
same,activity at […],Commenline benghalensis; 1.6 gai/ha,45%
same,activity at […],Commenline benghalensis; 3.2 gai/ha,45%
same,activity at 0.4 g/ha,"Commenline benghalensis; 480 h, GS 11-33, 20 DAT, 0.4 gai/ha",15%
same,activity at 0.4 g/ha,"Echinocloa crus-galli; 168 h, GS 11-33, 7 DAT",15%
same,activity at 0.4 g/ha,"Echinocloa crus-galli; 480 h, GS 11-33, 20 DAT",10%
same,% activity,Echinocloa crus-galli; [5],10%
same,% activity,"Echinocloa crus-galli; GS 11-33, 20 DAT, use rate 0.8 gai/ha",35%
same,activity at 0.8 g/ha,"Sorghum halepense; Sorghum halepense, post-emergence, 480 h, 0.8 gai/ha, isoxazolin, read-out: % activity (solo application)",55%
same,activity at […],"Sorghum halepense; Sorghum halepense, post-emergence, 480 h, 1.6 gai/ha, read-out: % activity (solo application)",60%
same,activity at […],"Sorghum halepense; Sorghum halepense, post-emergence, 480 h, 3.2 gai/ha, read-out: % activity (solo application)",85%
same,% activity,"Sorghum halepense; solo application, SORHA, use rate 0.8 gai/ha",35%
same,activity at […],"Brachiaria decumbens; 192 h, GS 11-33, 8 DAT, 1.6 gai/ha",25%
same,activity at […],Brachiaria decumbens; [1],50%
same,activity at […],Brachiaria decumbens; [3],30%
same,% activity,"Brachiaria decumbens; solo application, BRADC, GS 11-33, 20 DAT, use rate 1.6 gai/ha",20%
same,activity at 0.4 g/ha,"Abutilon theophrasti; 168 h, GS 11-33, 7 DAT",5%
same,activity at 0.8 g/ha,"Abutilon theophrasti; 168 h, GS 11-33, 7 DAT",5%
same,activity at […],"Abutilon theophrasti; 168 h, GS 11-33, 7 DAT, 1.6 gai/ha",10%
same,activity at […],Abutilon theophrasti; [4],15%
same,activity at 0.4 g/ha,"Abutilon theophrasti; 480 h, GS 11-33, 20 DAT",5%
same,activity at 0.8 g/ha,"Abutilon theophrasti; 480 h, GS 11-33, 20 DAT",5%
same,activity at […],Abutilon theophrasti; [3],20%
same,activity at 0.4 g/ha,Setaria faberi; 0.4 gai/ha,20%
same,activity at […],Setaria faberi; 1.6 gai/ha,60%
same,activity at […],Setaria faberi; 3.2 gai/ha,90%
